Source: paper PMC9516332 (Frontiers in Oncology, 2022)
Read-outs that look alike come from different tables or passages of the source.

How the values were obtained:
[1] = tested on: EGFR-mutant cell lines; test: Cell viability assay, EGFR-mutant versus EGFR wild-type cell lines; type: cell-based
[2] = tested on: ERBB2-amplified cell lines; test: Cell viability assay, ERBB2-amplified versus non-amplified cell lines; type: cell-based; conditions: MANOVA
Protocol: The effect of compounds on cell viability was determined by measuring intracellular ATP content as an indirect readout of cell number ([15]). […] A vehicle-treated control (0.4% (v/v) DMSO) was included in quadruplicate on the same assay plate to determine maximum cell growth. The final DMSO concentration was 0.4% (v/v) in all wells. After incubation for another 72 hours, ATP content in each well was measured as described previously. […] When the cell doubling deviated > 2-fold from the historic doubling as determined in multiple independent experiments, the experiment was invalidated and repeated. […] IC50 values of kinase inhibitors were calculated by fitting a 4-parameter logistic curve to the percentage viability values using IDBS XLfit5 (IDBS, Guildford, United Kingdom). […] . For some compounds, biphasic curves were measured in one or more cell lines, indicating a dual mechanism of action in these cell lines ([29]). […] For all bioinformatic analyses, ^10log(IC50 [nmol/L]) values were used.
Cell lines were classified as having an alteration in a specific cancer gene if at least one allele was altered by point mutation, insertion, deletion, fusion, or amplification. The mutation, fusion, and amplification status of the cell lines was retrieved from the COSMIC cell lines project (version 80) ([23]), Cancer Cell Line Encyclopedia (CCLE), DepMap (version 22Q1) ([16]), and Cellosaurus ([30]) databases. In order to ensure that genomic alterations included in subsequent analyses were relevant to cancer growth and drug response, mutations were only included when they were either reported as a hotspot mutation in Cancer Hotspots ([31]), described as oncogenic and gain-of-function in OncoKB or JAX CKB, or described as pathogenic in the literature. […] J82 was therefore annotated as FGFR3 wild-type.
All statistical analyses were performed in R (version 4.1.2), unless otherwise indicated. A two-sided Mann-Whitney test was performed for two-group comparisons. […] . Multivariate analysis of variance (MANOVA) was performed for multi-group comparison.

[3] = molecular target: panel of 255 wild-type kinases (Homo sapiens, UniProt P14616); conditions: cited from earlier work
[4] = molecular target: panel of 255 wild-type kinases (Homo sapiens, UniProt P27448); conditions: cited from earlier work
[5] = molecular target: panel of 255 wild-type kinases (Homo sapiens, UniProt P78368); conditions: cited from earlier work
[6] = molecular target: T1, panel of 255 wild-type kinases (Homo sapiens, UniProt Q16566); conditions: cited from earlier work
T1 sequence (Q16566 1-473): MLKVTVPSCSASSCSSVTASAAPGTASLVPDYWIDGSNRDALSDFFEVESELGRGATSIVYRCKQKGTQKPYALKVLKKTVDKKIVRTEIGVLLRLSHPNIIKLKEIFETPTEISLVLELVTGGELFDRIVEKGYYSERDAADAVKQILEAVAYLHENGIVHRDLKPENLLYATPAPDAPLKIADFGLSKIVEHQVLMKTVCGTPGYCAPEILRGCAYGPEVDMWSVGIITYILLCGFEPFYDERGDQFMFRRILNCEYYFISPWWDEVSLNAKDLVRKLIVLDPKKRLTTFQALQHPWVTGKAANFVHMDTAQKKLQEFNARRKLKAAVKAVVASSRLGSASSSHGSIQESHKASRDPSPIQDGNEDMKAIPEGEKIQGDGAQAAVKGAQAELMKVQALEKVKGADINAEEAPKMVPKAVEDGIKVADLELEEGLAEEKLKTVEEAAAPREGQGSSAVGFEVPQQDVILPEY

[7] = molecular target: panel of 255 wild-type kinases (Homo sapiens, UniProt Q9HBH9); conditions: cited from earlier work
[8] = molecular target: T2, panel of 255 wild-type kinases (Homo sapiens, UniProt P51813); conditions: cited from earlier work
T2 sequence (P51813 1-675): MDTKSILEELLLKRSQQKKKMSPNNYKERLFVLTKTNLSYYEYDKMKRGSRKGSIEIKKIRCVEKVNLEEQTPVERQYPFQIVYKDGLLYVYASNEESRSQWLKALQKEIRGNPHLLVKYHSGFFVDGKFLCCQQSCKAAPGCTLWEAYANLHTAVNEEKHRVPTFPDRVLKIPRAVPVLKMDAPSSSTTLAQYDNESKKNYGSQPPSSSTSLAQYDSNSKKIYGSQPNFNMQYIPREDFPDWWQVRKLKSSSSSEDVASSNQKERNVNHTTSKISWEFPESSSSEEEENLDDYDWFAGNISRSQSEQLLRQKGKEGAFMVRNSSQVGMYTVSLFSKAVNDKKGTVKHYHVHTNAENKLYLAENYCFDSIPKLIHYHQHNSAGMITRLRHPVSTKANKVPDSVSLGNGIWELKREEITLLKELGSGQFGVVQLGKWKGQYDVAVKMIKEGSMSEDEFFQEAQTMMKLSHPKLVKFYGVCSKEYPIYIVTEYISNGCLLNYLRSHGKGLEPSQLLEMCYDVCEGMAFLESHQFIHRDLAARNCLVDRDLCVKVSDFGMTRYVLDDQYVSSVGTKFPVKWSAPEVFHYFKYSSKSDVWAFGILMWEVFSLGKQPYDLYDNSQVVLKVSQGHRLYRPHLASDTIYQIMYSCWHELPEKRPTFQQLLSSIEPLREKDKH

[9] = tested on: FGFR-altered cell lines; test: Cell viability assay, FGFR-altered versus FGFR wild-type cell lines; type: cell-based; conditions: for IC50: read-out: average IC50 in the eight FGFR-altered cell lines; for higher potency in FGFR-altered compared to FGFR wild-type cell lines: on average, MANOVA
[10] = kinase IRR, 1 µmol/L single concentration, ref DOI: 10.1158/1535-7163.MCT-18-0877
[11] = MARK3, 1 µmol/L single concentration, ref DOI: 10.1158/1535-7163.MCT-18-0877
[12] = kinase CK1γ2, 1 µmol/L single concentration, ref DOI: 10.1158/1535-7163.MCT-18-0877
[13] = CaMK4 kinase assay, 1 µmol/L single concentration, ref DOI: 10.1158/1535-7163.MCT-18-0877
[14] = MNK2, 1 µmol/L single concentration, ref DOI: 10.1158/1535-7163.MCT-18-0877
[15] = BMX kinase assay, 1 µmol/L single concentration, ref DOI: 10.1158/1535-7163.MCT-18-0877
[16] = MARK3, 1 µmol/L single concentration, ref DOI: 10.1371/journal.pone.0092146
[17] = MNK2, 1 µmol/L single concentration, ref DOI: 10.1371/journal.pone.0092146
[18] = kinase IRR, 1 µmol/L single concentration, ref DOI: 10.1371/journal.pone.0092146
[19] = BMX kinase assay, 1 µmol/L single concentration, ref DOI: 10.1371/journal.pone.0092146
[20] = CaMK4 kinase assay, 1 µmol/L single concentration, ref DOI: 10.1371/journal.pone.0092146
[21] = kinase CK1γ2, 1 µmol/L single concentration, ref DOI: 10.1371/journal.pone.0092146

## CC#CC(=O)N1CCC[C@H]1c1nc(-c2ccc(C(=O)Nc3ccccn3)cc2)c2c(N)nccn12 [acalabrutinib]
[1]; MANOVA
  preferential targeting of EGFR-mutant cell lines: did not significantly target
[2]
  preferential targeting of ERBB2-amplified versus non-amplified cell lines: 44 fold
[3]; [10]
  %-inhibition at 1 µmol/L, IRR: -0.87%
[4]; [11]
  %-inhibition, MARK3: -2.57%
[5]; [12]
  %-inhibition at 1 µmol/L, CK1γ2: -7%
[6]; [13]
  %-inhibition CaMK4: -8.42%
[7]; [14]
  %-inhibition, MNK2: 12%

## CCc1cc2c(cc1N1CCC(N3CCOCC3)CC1)C(C)(C)c1[nH]c3cc(C#N)ccc3c1C2=O [alectinib]
[3]; [10]
  %-inhibition at 1 µmol/L, IRR: 57%
[4]; [11]
  %-inhibition, MARK3: 9%
[8]; [15]
  %-inhibition BMX: 4%
[5]; [12]
  %-inhibition at 1 µmol/L, CK1γ2: -0.041%
[6]; [13]
  %-inhibition CaMK4: -4%
[7]; [14]
  %-inhibition, MNK2: 13%

## COc1cc(N2CCC(N3CCN(C)CC3)CC2)ccc1Nc1ncc(Cl)c(Nc2ccccc2P(C)(C)=O)n1 [brigatinib]
[3]
  %-inhibition at 1 µmol/L, IRR: 99%
[4]
  %-inhibition, MARK3: 99%
[8]
  %-inhibition BMX: 18%
[5]
  %-inhibition at 1 µmol/L, CK1γ2: -2.5%
[6]
  %-inhibition CaMK4: 13%
[7]
  %-inhibition, MNK2: 66%

## Cc1cc(Nc2ncc(Cl)c(Nc3ccccc3S(=O)(=O)C(C)C)n2)c(OC(C)C)cc1C1CCNCC1 [ceritinib]
[3]; [10]
  %-inhibition at 1 µmol/L, IRR: 102%
[4]; [11]
  %-inhibition, MARK3: 10%
[8]; [15]
  %-inhibition BMX: -0.557%
[5]; [12]
  %-inhibition at 1 µmol/L, CK1γ2: 0.506%
[6]; [13]
  %-inhibition CaMK4: 30%
[7]; [14]
  %-inhibition, MNK2: 76%

## O=C(c1ccc(F)c(F)c1Nc1ccc(I)cc1F)N1CC(O)([C@@H]2CCCCN2)C1 [cobimetinib]
[3]; [10]
  %-inhibition at 1 µmol/L, IRR: -0.403%
[4]; [11]
  %-inhibition, MARK3: -1.51%
[8]; [15]
  %-inhibition BMX: 3.49%
[5]; [12]
  %-inhibition at 1 µmol/L, CK1γ2: 2.37%
[6]; [13]
  %-inhibition CaMK4: 2%
[7]; [14]
  %-inhibition, MNK2: 8%

## C[C@@H](Oc1cc(-c2cnn(C3CCNCC3)c2)cnc1N)c1c(Cl)ccc(F)c1Cl [crizotinib]
[4]; [16]
  %-inhibition, MARK3: 41%
[7]; [17]
  %-inhibition, MNK2: 2%

## CC(C)(C)c1nc(-c2cccc(NS(=O)(=O)c3c(F)cccc3F)c2F)c(-c2ccnc(N)n2)s1 [dabrafenib]
[3]; [18]
  %-inhibition at 1 µmol/L, IRR: 10%
[4]; [16]
  %-inhibition, MARK3: 4%
[8]; [19]
  %-inhibition BMX: 55%
[6]; [20]
  %-inhibition CaMK4: 78%

## COc1cc2ncnc(Nc3ccc(F)c(Cl)c3)c2cc1NC(=O)/C=C/CN1CCCCC1 [dacomitinib]
[1]; on average, MANOVA
  lower IC50 (higher potency) in EGFR-mutant compared to EGFR wild-type cell lines: about 110 fold

## CCN1CCN(c2ccc(Nc3cc(N(C)C(=O)Nc4c(Cl)c(OC)cc(OC)c4Cl)ncn3)cc2)CC1 [infigratinib]
[9]; average IC50
  potency in FGFR-altered cell lines compared to erdafitinib and pemigatinib: more than three-fold lower potency
[9]; geometric average
  IC50: 20 nM
[9]
  higher potency in FGFR-altered compared to FGFR wild-type cell lines: 130 fold

## CO[C@@H]1[C@H](N(C)C(=O)c2ccccc2)C[C@H]2O[C@]1(C)n1c3ccccc3c3c4c(c5c6ccccc6n2c5c31)C(=O)NC4 [midostaurin]
[3]; [10]
  %-inhibition at 1 µmol/L, IRR: 26%
[8]; [15]
  %-inhibition BMX: 81%
[5]; [12]
  %-inhibition at 1 µmol/L, CK1γ2: -2.45%
[6]; [13]
  %-inhibition CaMK4: 3.79%
[7]; [14]
  %-inhibition, MNK2: 80%

## C=CC(=O)Nc1cc(Nc2nccc(-c3cn(C)c4ccccc34)n2)c(OC)cc1N(C)CCN(C)C [osimertinib]
[1]
  lower IC50 (higher potency) in EGFR-mutant compared to EGFR wild-type cell lines: 33 fold
[3]; [10]
  %-inhibition at 1 µmol/L, IRR: 77%
[4]; [11]
  %-inhibition, MARK3: 9%
[8]; [15]
  %-inhibition BMX: 57%
[5]; [12]
  %-inhibition at 1 µmol/L, CK1γ2: 17%
[6]; [13]
  %-inhibition CaMK4: 2.5%
[7]; [14]
  %-inhibition, MNK2: 97%

## CCN1C(=O)N(c2c(F)c(OC)cc(OC)c2F)Cc2cnc3[nH]c(CN4CCOCC4)cc3c21 [pemigatinib]
[9]
  higher potency in FGFR-altered compared to FGFR wild-type cell lines: over 500 fold
  IC50: 4.3 nM

## CC(=O)Nc1cccc(-n2c(=O)n(C3CC3)c(=O)c3c(Nc4ccc(I)cc4F)n(C)c(=O)c(C)c32)c1 [trametinib]
[3]; [18]
  %-inhibition at 1 µmol/L, IRR: 1.35%
[4]; [16]
  %-inhibition, MARK3: -3.21%
[8]; [19]
  %-inhibition BMX: -3.22%
[5]; [21]
  %-inhibition at 1 µmol/L, CK1γ2: -2.15%
[6]; [20]
  %-inhibition CaMK4: -5.45%
[7]; [17]
  %-inhibition, MNK2: -11%

## CCCS(=O)(=O)Nc1ccc(F)c(C(=O)c2c[nH]c3ncc(-c4ccc(Cl)cc4)cc23)c1F [vemurafenib]
[3]; [18]
  %-inhibition at 1 µmol/L, IRR: 21%
[4]; [16]
  %-inhibition, MARK3: -0.226%
[8]; [19]
  %-inhibition BMX: 24%
[5]; [21]
  %-inhibition at 1 µmol/L, CK1γ2: 0.506%
[6]; [20]
  %-inhibition CaMK4: -2.38%
[7]; [17]
  %-inhibition, MNK2: 27%

## C=CC(=O)N1CCC([C@@H]2CCNc3c(C(N)=O)c(-c4ccc(Oc5ccccc5)cc4)nn32)CC1 [zanubrutinib]
[1]; on average, MANOVA
  lower IC50 (higher potency) in EGFR-mutant compared to EGFR wild-type cell lines: 8 fold
[2]
  preferential targeting of ERBB2-amplified versus non-amplified cell lines: 45 fold
